Test results reported in patent publication US20220213440A1, “DENDRITIC CELL IMMUNOTHERAPY” (BAYLOR COLLEGE OF MEDICINE, priority 2015, published 2022).

Assays:
CD8^+ T-cells = assay: In vitro co-culture of loaded mouse DC with splenocytes, T-cell populations; type: cell-based; conditions: loaded H2-DM^−/− DC with wild type syngeneic splenocytes
Text: FIGS. 1A-F: Concurrent loading of antigenically related MHC Class I and II determinants promote TH1-polarization of mouse DC. […] This effect was abrogated by siRNA knockdown of AIMp1. Antigens were derived from the RAW264.7 cell line. Heterologous Class II antigens were derived from the 4T1 breast cancer cell line. Y-axis: fold change in IL-12p70 secretion from unloaded (UL) DC. […] Top panel: AIMp1 release following homologous loading with RAW264.7 antigenic determinants. Heterologous lysate derived from 4T1. Bottom panel: AIMp1 release following homologous loading with primary SV antigenic determinants. Heterologous lysate derived from primary prostate. […] Shown: sCTLA-4 release following homologous loading with RAW264.7 antigenic determinants. Heterologous lysate derived from 4T1. […] Data shown are indicative of typical AIMp1 knockdown of >70%. […] This effect was abrogated by treatment of homologously-loaded DC with AIMp1 siRNA. Heterologous lysate was primary prostate. […]
FIGS. 3A-G: AIMp1/sCTLA-4 modulation is dependent upon binding of homologous class I and II peptide to MHC. […] (B) Densitometry quantitation of AIMp1/sCTLA-4 ratios of the data depicted in (a) over three independent experiments. […] (Glycine Pair: Class I=SEQ ID NO: 3, Class II=SEQ ID NO: 2; Methionine Pair: Class I=SEQ ID NO: 8, Class II=SEQ ID NO: 9) (F) Densitometric quantitation of the data presented in (e). […]

H2-DM^−/− DC = assay: AIMp1 / sCTLA-4 secretion from H2-DM-/- DC loaded with class I peptide; type: cell-based, mouse
Text: FIGS. 3A-G: AIMp1/sCTLA-4 modulation is dependent upon binding of homologous class I and II peptide to MHC. (A) sCTLA-4 (right) and AIMp1 (left) western blots of wild type (top) and H2-DM^−/− (bottom) murine DC culture supernatants following single, homologous, or heterologous loading with SV mRNA and lysate. Representative experiment shown. (B) Densitometry quantitation of AIMp1/sCTLA-4 ratios of the data depicted in (a) over three independent experiments. Top panel: wild type DC. Bottom panel: H2-DM^−/− DC. […] (Glycine Pair: Class I=SEQ ID NO: 3, Class II=SEQ ID NO: 2; Methionine Pair: Class I=SEQ ID NO: 8, Class II=SEQ ID NO: 9) (F) Densitometric quantitation of the data presented in (e). […]
Preparation of Vaccine Materials, Loading of DC, and In vitro CoCulture—Seminal vesicle (SV) and prostate were harvested from 10 week old male mice and immediately frozen at −80° C. […] To generate mRNA, total RNA was isolated from homogenized tissue using Trizol reagent (Life Technologies, Carlsbad, Calif.) according to the manufacturer's instructions, and mRNA was isolated from total RNA using an Oligotex mRNA Maxi Kit (Qiagen, Valencia, Calif.) also according to the manufacturer's instructions. mRNA was quantitated with a Nanodrop spectrophotometer (Thermo Scientific) and integrity was verified by gel electrophoresis. […]

[1] = test system: AIMp1 and sCTLA-4 secretion from mouse DC; assay: AIMp1 / sCTLA-4 Western blot of mouse DC culture supernatants; type: cell-based; conditions: mouse DC (not shown), 1 μg/ml, absence of antigenic loading
Text: FIGS. 1A-F: Concurrent loading of antigenically related MHC Class I and II determinants promote TH1-polarization of mouse DC. […] This effect was abrogated by siRNA knockdown of AIMp1. Antigens were derived from the RAW264.7 cell line. Heterologous Class II antigens were derived from the 4T1 breast cancer cell line. Y-axis: fold change in IL-12p70 secretion from unloaded (UL) DC. […] Top panel: AIMp1 release following homologous loading with RAW264.7 antigenic determinants. Heterologous lysate derived from 4T1. Bottom panel: AIMp1 release following homologous loading with primary SV antigenic determinants. Heterologous lysate derived from primary prostate. […] Shown: sCTLA-4 release following homologous loading with RAW264.7 antigenic determinants. Heterologous lysate derived from 4T1. […] Data shown are indicative of typical AIMp1 knockdown of >70%. […] This effect was abrogated by treatment of homologously-loaded DC with AIMp1 siRNA. Heterologous lysate was primary prostate. Y-axis: fold change in total cell count in comparison to unloaded (UL) DC. […]
Quantitation of Western Blot Images—Western blot chemiluminescent signal was detected using a ChemiDoc XRS digital imaging system running Image Lab software Version 2.0.1 (Bio-Rad Laboratories, Hercules, Calif.). All Western blots were quantitated by densitometry of Ponceau S (Sigma-Aldrich) stained membranes. […]

[2] = test system: sCTLA-4 and AIMp1 secretion from human DC; assay: sCTLA-4 and AIMp1 western blots of human DC culture supernatants with TLR agonistic stimuli; type: cell-based; conditions: 1 μg/ml, absence of antigenic loading

| Substance | CD8^+CD25^+ T cells after coculture (CD8^+ T-cells) | AIMp1 release (H2-DM^−/− DC; SIINFEKL as control) | sCTLA-4 secretion (H2-DM^−/− DC; dose-dependent) | sCTLA-4 or AIMp1 secretion with TLR agonist [1] | sCTLA-4 or AIMp1 secretion with TLR agonist [2] |
| --- | --- | --- | --- | --- | --- |
| MRMATPLLM [H-2D^b CLIP] | increase in CD8^+CD25^+ T cells | Substantial AIMp1 release was observed in a dose-dependent fashion | diminution of sCTLA-4 secretion |  |  |
| flagellin |  |  |  | Neither poly(I:C), LPS, flagellin, nor CpG-ODN altered sCTLA-4 or AIMp1 secretion | Neither poly(I:C), LPS, flagellin, nor CpG-ODN altered sCTLA-4 or AIMp1 secretion |
| polyinosine-polycytidylic acid [poly(I:C)] |  |  |  | Neither poly(I:C), LPS, flagellin, nor CpG-ODN altered sCTLA-4 or AIMp1 secretion | Neither poly(I:C), LPS, flagellin, nor CpG-ODN altered sCTLA-4 or AIMp1 secretion |
